Source: ChEMBL document CHEMBL1201862, “PubChem BioAssay data set” (2004)
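These data come from cells grown in 96-well plates and exposed to compound for 48 hours at five concentrations. GI50 = concentration required for 50% inhibition of growth.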 The source made the active and inactive calls. Rule as the data show it: active = GI50 up to about 1.1 µM and inactive = higher.

How the values were obtained:
Experiment in all cases: inhibition of tumour cell growth, NCI panel, 48 h
[1] = test system: Malme-3M
[2] = test system: EKVX
[3] = test system: CCRF-CEM
[4] = test system: NCI-H460
[5] = test system: OVCAR-3
[6] = test system: HT-29
[7] = test system: SNB-75
[8] = test system: MOLT-4
[9] = test system: SW-620
[10] = test system: UO-31
[11] = test system: HCT-116
[12] = test system: U-251
[13] = test system: KM12
[14] = test system: NCI-H23
[15] = test system: HOP-92
[16] = test system: MDA-MB-231
[17] = test system: A549
[18] = test system: CAKI-1
[19] = test system: SK-MEL-5

SMILES	GI50 [1]	GI50 [2]	GI50 [3]	GI50 [4]	GI50 [5]	GI50 [6]	GI50 [7]	GI50 [8]	GI50 [9]	GI50 [10]	GI50 [11]	GI50 [12]	GI50 [13]	GI50 [14]	GI50 [15]	GI50 [16]	GI50 [17]	GI50 [18]	GI50 [19]
CCCCCCCCCCCCCCCC(=O)OCC(O)C1OC(=O)C(O)=C1O (stereo unspecified)	> 100 µM (inactive)	> 100 µM (inactive)	23.7 µM (inactive)	> 100 µM (inactive)	> 100 µM (inactive)	12.8 µM (inactive)	16.1 µM (inactive)	62.7 µM (inactive)	37.9 µM (inactive)	28.9 µM (inactive)	19.3 µM (inactive)	28.1 µM (inactive)	23.4 µM (inactive)	3.21 µM (inactive)	< 0.01 µM (active)	28.8 µM (inactive)	21.8 µM (inactive)	43.9 µM (inactive)	> 100 µM (inactive)
COc1cc2c3c(c1OC)C(=O)C=C3N(S(=O)(=O)c1ccc(C)cc1)CC2	> 100 µM (inactive)	> 100 µM (inactive)	> 100 µM (inactive)	> 100 µM (inactive)	> 100 µM (inactive)	> 100 µM (inactive)	46.9 µM (inactive)	> 100 µM (inactive)	> 100 µM (inactive)	> 100 µM (inactive)	> 100 µM (inactive)	84.5 µM (inactive)	> 100 µM (inactive)	> 100 µM (inactive)	> 100 µM (inactive)	–	> 100 µM (inactive)	52.6 µM (inactive)	> 100 µM (inactive)
Cc1ccc(NC(=O)CCc2nnc(N)o2)cc1	> 100 µM (inactive)	> 100 µM (inactive)	> 100 µM (inactive)	> 100 µM (inactive)	> 100 µM (inactive)	> 100 µM (inactive)	> 100 µM (inactive)	> 100 µM (inactive)	> 100 µM (inactive)	> 100 µM (inactive)	> 100 µM (inactive)	> 100 µM (inactive)	> 100 µM (inactive)	> 100 µM (inactive)	> 100 µM (inactive)	–	> 100 µM (inactive)	> 100 µM (inactive)	> 100 µM (inactive)
C#CCSc1nc(N)c2ncn(C3OC(COP(=O)(O)O)C(O)C3O)c2n1 (stereo unspecified)	> 239 µM (inactive)	> 239 µM (inactive)	> 239 µM (inactive)	> 239 µM (inactive)	> 239 µM (inactive)	> 239 µM (inactive)	> 239 µM (inactive)	> 239 µM (inactive)	> 239 µM (inactive)	> 239 µM (inactive)	> 239 µM (inactive)	–	> 239 µM (inactive)	> 239 µM (inactive)	> 239 µM (inactive)	–	> 239 µM (inactive)	> 239 µM (inactive)	> 239 µM (inactive)
Nc1ncnc2c1ncn2C1OC(CSC(F)F)C(O)C1O (stereo unspecified)	> 100 µM (inactive)	> 100 µM (inactive)	> 100 µM (inactive)	> 100 µM (inactive)	> 100 µM (inactive)	> 100 µM (inactive)	> 100 µM (inactive)	> 100 µM (inactive)	> 100 µM (inactive)	> 100 µM (inactive)	> 100 µM (inactive)	> 100 µM (inactive)	> 100 µM (inactive)	> 100 µM (inactive)	> 100 µM (inactive)	–	> 100 µM (inactive)	> 100 µM (inactive)	> 100 µM (inactive)
CCOC(=O)c1sc2c(c1OC(=O)c1ccc(Cl)cc1Cl)c(=O)n(-c1ccccc1)c(=S)n2-c1ccccc1	22.9 µM (inactive)	17.1 µM (inactive)	3.27 µM (inactive)	5.24 µM (inactive)	21 µM (inactive)	8.89 µM (inactive)	7.01 µM (inactive)	3.17 µM (inactive)	9.64 µM (inactive)	13.4 µM (inactive)	8.13 µM (inactive)	5.21 µM (inactive)	5.73 µM (inactive)	4.91 µM (inactive)	3.49 µM (inactive)	20.9 µM (inactive)	8.55 µM (inactive)	17.9 µM (inactive)	11.7 µM (inactive)
CN1CCN(c2ccc3[nH]c(-c4ccc5[nH]c(CCCc6ccc(N(CCCl)CCCl)cc6)nc5c4)nc3c2)CC1	> 100 µM (inactive)	–	75.3 µM (inactive)	> 100 µM (inactive)	–	41.7 µM (inactive)	> 100 µM (inactive)	77.8 µM (inactive)	> 100 µM (inactive)	> 100 µM (inactive)	> 100 µM (inactive)	> 100 µM (inactive)	> 100 µM (inactive)	> 100 µM (inactive)	> 100 µM (inactive)	> 100 µM (inactive)	> 100 µM (inactive)	> 100 µM (inactive)	> 100 µM (inactive)
